According to US12257246B2, “Composition of 2,4,6-trifluoro-n-[6-(1-methyl-piperidin-4-carbonyl)-pyridin-2-yl[-benzamide” (CoLucid Pharmaceuticals, Inc., priority 2009, dated 2025):
“Also recorded” adds a separate entry of the source.

Test: Oral pharmacokinetics (solution and tablet), Study 1 and Study 2
Format: in vivo, human
Description: Plasma samples were analyzed for Compound I using a validated liquid chromatography with tandem mass spectrometric detection (LC/MS/MS) method. Relative bioavailability of tablet and solution formulations for AUCt, AUC∞, and Cmax were assessed. A linear mixed effects model was fitted to the log-transformed PK parameters (AUCt, AUC∞, and Cmax). Included in the model were treatment, period, and sequence as fixed factors and subjects nested within sequences as a random factor. For the relative bioavailability analysis, the tablet formulation was the test and the solution formulation was the reference. 90% confidence intervals and ratios for the relative mean in-transformed AUCt, AUC∞, and Cmax of the test to reference formulation were calculated.

CN1CCC(C(=O)c2cccc(NC(=O)c3c(F)cc(F)cc3F)n2)CC1 [Compound I, 2,4,6-trifluoro-N-[6-(1-methyl-piperidin-4-ylcarbonyl)-pyridin-2-yl]-benzamide]
Tmax (both sexes, human, plasma, 50 to 400 mg tablet formulation, oral, read-out: Median tmax): 1.5 to 2.5 h
oral bioavailability (human, in vivo, po): orally bioavailable
bioavailability (male, human, plasma, 200 mg oral dose, read-out: relative bioavailability of the tablet to the solution): 100%
dose linearity / proportionality of oral pharmacokinetics (oral 25 to 400 mg, males and females): dose linearity; also recorded: dose proportionality
oral dose achieving plasma levels previously associated with efficacy by the i.v. route (solution and tablet): ≥ 50 mg
